Measured values published in PMC9856672, “SGC-CAMKK2-1: A Chemical Probe for CAMKK2” (Cells, 2023).
“Also recorded” adds a separate entry of the source.

Columns and labels:
[1] = system: p-AMPK(Thr172) in MDA-MB-231 cells; assay: Immunoblot of p-AMPK(Thr172) in MDA-MB-231 breast cancer cells; format: cell-based; settings: 24 h
Description: The cells were then washed three times with 2 mL of ice-cold PBS and lysed with 0.15 mL of phospho-RIPA lysis buffer (Tris-Cl pH 7.5, 50 mM; NaCl, 150 mM; NP-40, 1%; sodium deoxycholate, 0.5%; SDS, 0.05%; EDTA, 5 mM; sodium fluoride, 50 mM; sodium pyrophosphate, 15 mM; ß-glycerophosphate, 10 mM; sodium orthovanadate, 1 mM) with protease inhibitor cocktail (Millipore-Sigma, P-8340). Equal amounts of protein per sample/lane were denatured and resolved by SDS-PAGE. Proteins were transferred to Odyssey Nitrocellulose Membranes (LI-COR Biosciences, cat no: 926-31092), and quantitative immunoblotting was performed using the Odyssey infrared immunoblotting detection system (LI-COR Biosciences, Lincoln, NE, USA). Images were captured using the LI-COR Odyssey Classic scanner and processed using LI-COR Image Studio software, version 4.0. Quantification of the bands was done using Image Studio software tools whereby each individual immunoblot band was highlighted to obtain the signal intensity. The signal intensity of the pAMPK band was then divided by that of total AMPK and the data were normalized to the vehicle-only controls for each experiment. Primary antibodies used were anti-phospho AMPKα (Thr172) (Cell Signaling, cat no: 2535, dilution 1:1000); anti-AMPKα (Cell Signaling, cat.no: 2532, dil 1:500), and anti β-actin (Cat no: 3700, Cell signaling, dil 1:10,000). […]

CAMKK2 = CAMKK2 (Homo sapiens, UniProt Q96RR4); assay: CAMKK2 enzyme assay (radiolabeled phosphate transfer from [γ-32P]-ATP to CaMKKtide); format: biochemical; set-up: purified recombinant CAMKK2 (100 pM) was incubated in assay buffer; settings: 200 μM ATP, 100 pM CAMKK2
Description: CAMKK2 activity was determined by measuring the transfer of radiolabeled phosphate from [γ-^32P]-ATP to a synthetic peptide substrate (CaMKKtide) as previously described. Briefly, purified recombinant CAMKK2 (100 pM) was incubated in assay buffer (50 mM HEPES [pH 7.4], 1 mM DTT, 0.02% [v/v] Brij-35) containing 200 μM CaMKKtide (Genscript), 100 μM CaCl2, 1 μM CaM (Sigma-Aldrich, Castle Hill, NSW, Australia), 200 μM [γ-^32P]-ATP (Perkin Elmer, Boston, MA, USA), 5 mM MgCl2 (Sigma-Aldrich, Castle Hill, NSW, Australia), and various concentrations of inhibitors (0–1 μM) in a standard 30 μL assay for 10 min at 30 °C. Reactions were terminated by spotting 15 μL onto P81 phosphocellulose paper (GE Lifesciences, Paramatta, NSW, Australia) and washing extensively in 1% phosphoric acid (Sigma-Aldrich, Castle Hill, NSW, Australia). Radioactivity was quantified by liquid scintillation counting.
A series of furo [2,3-b]pyridines were generated with modifications off the core at the 3- and 5-positions. They were profiled in the CAMKK2 enzyme assay we have described and utilized previously. Briefly, the enzyme assay measures the ability of the compound to inhibit the transfer of a radiolabeled phosphate from ATP to a CAMKK2-specific peptide. […] The S10 (1 µM), a calculated score that is reflective of broad kinome selectivity, is 0.002 for the probe molecule.

[2] = system: p-AMPK(Thr172) in C4-2 cells; assay: Western blot of p-AMPK(Thr172) in C4-2 prostate cancer cells; format: cell-based; settings: 24 h treatment; for IC50: C4-2, 24 h, three individual experiments, read-out: IC50 for decrease of p-AMPK(Thr172) normalized to total AMPK
Description: C4-2 cells were plated in 6-well plates in IMEM medium containing 0.5% FBS. After 72 h, the cells were then treated with the compounds for 24 h before the media was aspirated and cells were washed twice in ice-cold PBS. Cells were lysed using RIPA buffer containing phosphatase and protease inhibitor cocktail while rotating for 30 min at 4 °C. In each lane, 30 μg/well of protein lysate was loaded into a 10% SDS-PAGE gel and run for 1 h and 30 min. Gels were then transferred overnight in a TRIS-glycine/methanol transfer buffer onto a PVDF membrane at 4 °C. Membranes were blocked, incubated with primary overnight at 4 °C, washed, incubated with secondary at room temperature for 1 h, washed, and then developed on an Azure Biosystems C-600 imager. Densitometry was performed using ImageJ. Total-AMPK was normalized to GAPDH and then p-AMPK was normalized to normalized total-AMPK. Normalized p-AMPK was used to calculate IC50 in GraphPad Prism 9.5.0. Primary antibodies used were from Cell Signaling (Danvers, MA, USA; Phospho-AMPKα (Thr172) (40H9) Rabbit mAb: Cat#: 2535; AMPKα (D5A2) Rabbit mAb Cat#: 5831), BD Bioscience (Franklin Lakes, NJ, USA; CAMKK2 mouse mAb Cat# 610544), and Sigma (St. Louis, MO, USA; GAPDH rabbit pAb: Cat# G9545). Secondary antibody (Goat Anti-Rabbit IgG (H + L)-HRP Conjugate; Cat#:1706515) was from Bio-Rad Laboratories (Hercules, CA, USA).
In this experiment, IC50 was calculated via quantifying changes in p-AMPK(Thr172) normalized to total AMPK levels.

[3] = system: panel of more than 400 wild-type human kinases; assay: DiscoverX KINOMEscan broad kinome profiling (panel of more than 400 wild-type human kinases), selectivity score S10; format: binding; settings: KINOMEscan at 1 μM; number of wild type kinases with % control ≤10 / number tested
Description: Compounds were screened at Eurofins DiscoverX (Freemont, CA) at a single concentration of 1 μM using binding assays as described previously. Briefly, extracts containing DNA-tagged kinases are incubated with immobilized kinase inhibitors and the test compound (at 1 μM). Test compounds that displace the immobilized broad-spectrum inhibitors are detected by quantitative PCR. The results are expressed as the percentage of kinase bound to the bead compared to DMSO control (%control). […] The formula to calculate S10 depicted in Equation (1). (1) S10(1 μM)=number of wild type kinase with % control ≤10/number of wild type kinase tested
A series of furo [2,3-b]pyridines were generated with modifications off the core at the 3- and 5-positions. They were profiled in the CAMKK2 enzyme assay we have described and utilized previously. Briefly, the enzyme assay measures the ability of the compound to inhibit the transfer of a radiolabeled phosphate from ATP to a CAMKK2-specific peptide. […] 5 was then profiled in the DiscoverX KINOMEscan™ assay panel to provide a view of the overall kinome-wide selectivity (Supplemental S2). This assay platform evaluates compound affinity for a panel of more than 400 wild-type human kinases. The S10 (1 µM), a calculated score that is reflective of broad kinome selectivity, is 0.002 for the probe molecule.

LYN = biological target: T1, LYN (Homo sapiens, UniProt P07948); assay: KINOMEscan 1 μM, LYN; format: binding; settings: 1000 nM; Entrez LYN; read-out: Percent Control
T1 construct: purchased Eurofins DiscoverX KINOMEscan
Text: (§1) Supplement cells-12-00287-s001.zip/File S2. KinomeScan data for the CAMKK2 probe and negative control.xlsx, sheet "SGC-CAMKK2-1" | column: Percent Control

DCAMKL1 = biological target: T2, DCAMKL1 (Homo sapiens, UniProt O15075); assay: KINOMEscan 1 μM, DCAMKL1; format: binding; settings: 1000 nM; Entrez DCLK1; read-out: Percent Control
T2 construct: purchased Eurofins DiscoverX KINOMEscan
Text: as §1

T1 sequence (P07948 whole entry): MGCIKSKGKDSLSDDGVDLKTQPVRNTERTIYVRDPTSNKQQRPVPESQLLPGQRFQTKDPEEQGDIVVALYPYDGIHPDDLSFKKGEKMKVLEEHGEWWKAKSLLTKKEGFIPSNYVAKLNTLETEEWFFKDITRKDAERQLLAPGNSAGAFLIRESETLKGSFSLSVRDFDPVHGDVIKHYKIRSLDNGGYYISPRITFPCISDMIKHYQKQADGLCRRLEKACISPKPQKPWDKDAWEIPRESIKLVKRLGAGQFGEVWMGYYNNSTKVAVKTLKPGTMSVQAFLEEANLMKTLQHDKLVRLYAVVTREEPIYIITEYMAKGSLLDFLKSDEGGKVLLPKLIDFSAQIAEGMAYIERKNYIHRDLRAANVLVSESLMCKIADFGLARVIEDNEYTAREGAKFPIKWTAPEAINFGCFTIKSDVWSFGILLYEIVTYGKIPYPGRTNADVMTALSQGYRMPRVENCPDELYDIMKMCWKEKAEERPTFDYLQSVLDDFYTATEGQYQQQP
T2 sequence (O15075 whole entry): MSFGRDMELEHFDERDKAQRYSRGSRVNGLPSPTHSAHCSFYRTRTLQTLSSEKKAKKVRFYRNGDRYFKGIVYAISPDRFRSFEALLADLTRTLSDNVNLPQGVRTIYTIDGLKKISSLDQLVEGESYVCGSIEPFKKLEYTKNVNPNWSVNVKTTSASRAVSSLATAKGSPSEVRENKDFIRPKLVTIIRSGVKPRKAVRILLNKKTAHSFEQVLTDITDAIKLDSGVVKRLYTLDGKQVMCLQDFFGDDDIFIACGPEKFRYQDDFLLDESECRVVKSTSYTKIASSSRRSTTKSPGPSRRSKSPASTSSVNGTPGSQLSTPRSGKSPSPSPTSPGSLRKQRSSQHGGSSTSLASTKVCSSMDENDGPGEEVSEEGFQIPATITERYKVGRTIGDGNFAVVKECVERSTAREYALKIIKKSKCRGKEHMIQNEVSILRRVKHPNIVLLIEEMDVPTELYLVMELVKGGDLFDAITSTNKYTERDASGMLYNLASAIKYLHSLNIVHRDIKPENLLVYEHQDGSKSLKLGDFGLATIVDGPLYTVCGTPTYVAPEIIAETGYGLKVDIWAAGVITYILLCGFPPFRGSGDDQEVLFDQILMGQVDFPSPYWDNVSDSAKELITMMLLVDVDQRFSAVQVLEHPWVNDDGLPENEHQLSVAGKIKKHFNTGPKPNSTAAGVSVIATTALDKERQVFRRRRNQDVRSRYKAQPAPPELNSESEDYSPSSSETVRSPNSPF

| Compound | blocking of AMPK phosphorylation (in words) ([1]; negative control at 10 μM) | IC50 (CAMKK2; n = 1) [nM] | activity on p-AMPK(Thr172) levels (in words) [2] | IC50 [2] [nM] | S10 (1 μM) [3] | remaining binding at 1 µM (LYN) [%] | remaining binding at 1 µM (DCAMKL1) [%] | blocking of AMPK phosphorylation (in words) ([1]; SGC-CAMKK2-1) | IC50 (CAMKK2) [nM] |
| --- | --- | --- | --- | --- | --- | --- | --- | --- | --- |
| O=C(O)c1ccc(-c2coc3ncc(-c4ccccc4)cc23)cc1Cl [Compound 7] | no effect | 27000 | did not have any measurable activity | ≥ 10000 | 0.005 |  |  |  |  |
| Cc1cccc(-c2cnc3occ(-c4ccc(C(=O)O)c(C5CCCC5)c4)c3c2)c1 [SGC-CAMKK2-1 (YL-36)] |  |  |  |  |  | 100 | 100 |  |  |
| Cc1cccc(-c2cnc3occ(-c4ccc(C(=O)O)c(C5CCCC5)c4)c3c2)c1 [Compound 5] |  |  |  | 1600 | 0.002 |  |  | more effective than STO-609; also recorded: higher efficacy than STO-609 | 30 |
